From patent publication US20180326102A1, “SYSTEMS, METHODS, AND COMPOSITIONS FOR IMAGING ANDROGEN RECEPTOR AXIS ACTIVITY IN CARCINOMA, AND RELATED THERAPEUTIC COMPOSITIONS AND METHODS” (Memorial Sloan Kettering Cancer Center, priority 2015, published 2018)
Square brackets hold non-standard residues; d marks the D form. Peptide text beside a SMILES is read from it. * marks the point of attachment. dPhe(4-NHCONH2) = NC(=O)Nc1ccc(C[C@@H](N)C(=O)O)cc1; Dihydroorotyl(S) = O=C1C[C@@H](C(=O)*)NC(=O)N1; dPhe(4-Cl) = N[C@H](Cc1ccc(Cl)cc1)C(=O)O; Phe(4-NH2) = Nc1ccc(C[C@H](N)C(=O)O)cc1; d2Nal = N[C@H](Cc1ccc2ccccc2c1)C(=O)O; Lys(iPr) = CC(C)NCCCC[C@H](N)C(=O)O; d3Pal = N[C@H](Cc1cccnc1)C(=O)O

Key:
Pb_KLK2×Hi-Myc mice = format: in vivo
Description: A final clinical simulation involved non-invasive imaging of the impact of different degrees of inhibition on AR activity in the tumor (intratumoral) and prostate itself (intraprostatic). Progression of disease was initially monitored in 14 Pb_KLK2 XHi-Myc mice using ^89Zr-11B6 PET. Thereafter, mice were randomized into 3 treatment groups: vehicle (n=4), castration (n=6), or castration plus Enzalutamide (n=4).
PET imaging experiments were conducted on a micro-PET Focus 120 scanner (Concorde Microsystems). In initial studies, mice (n=4) were administered formulations of ^89Zr-11B6 [3.7-5.55 MBq (100-150 μCi), 300, 100, 50, or 25 μg of protein, in 150 μL sterile saline for injection] through i.v. Tail-vein injection. Approximately 5 minutes before recording PET images, mice were anesthetized by inhalation of 1% to 2% isoflurane (Baxter Healthcare)/oxygen gas mixture and placed on the scanner bed. PET images were recorded at various time points between 1 and 344 hours post-injection. […] For all static images, scan time was adjusted to ensure between 15-25 million coincident events were recorded.
Site-directed mutagenesis of APLILSR to APLRTKR at positions […], -3, and -2 the zymogen sequence of KLK2 was performed using a Quick Change Lightning Mutagenesis Kit (Stratagene). […] Mice were monitored closely in accordance with IACUC-established guidelines and RARC animal protocol (#04-01-002).

VCaP = assay: 18F-FDHT imaging in VCaP bearing mouse; format: in vivo; conditions: 1.5 h after administration
Description: The distribution at 1.5 h after administration in a representative VCaP (arrow) bearing mouse. ^18F-FDHT is a radiolabeled analog of the non-aromatizable dihydrotestosterone.

CNC(=O)c1ccc(N2C(=S)N(c3ccc(C#N)c(C(F)(F)F)c3)C(=O)C2(C)C)cc1F [Enzalutamide]
reactivation of ^89Zr-11B6 uptake (AR activity) after castration plus adjuvant androgen receptor blockade (Pb_KLK2×Hi-Myc mice; castration plus Enzalutamide, n=4): not significant

CC(=O)N[C@H](Cc1ccc2ccccc2c1)C(=O)N[C@H](Cc1ccc(Cl)cc1)C(=O)N[C@H](Cc1cccnc1)C(=O)N[C@@H](CO)C(=O)N[C@@H](Cc1ccc(NC(=O)[C@@H]2CC(=O)NC(=O)N2)cc1)C(=O)N[C@H](Cc1ccc(NC(N)=O)cc1)C(=O)N[C@@H](CC(C)C)C(=O)N[C@@H](CCCCNC(C)C)C(=O)N1CCC[C@H]1C(=O)N[C@H](C)C(N)=O [Degarelix] (Ac-[d2Nal][dPhe(4-Cl)][d3Pal]S[Phe(4-NH2)](Dihydroorotyl(S))[dPhe(4-NHCONH2)]L[Lys(iPr)]P[dA]-NH2)
^89Zr-11B6 uptake (AR pathway readout) during GnRH antagonist therapy (Pb_KLK2×Hi-Myc mice; depot injections, androgen ablation for 2 months): decreased following castration but reemerged at the end of the treatment period

CC12CCC(=O)CC1CCC1C2CCC2(C)C(O)C([18F])CC12 (stereo not drawn) [^18F-FDHT]
Liver, bile and kidney uptake relative to tumor uptake (VCaP): equivalent to or exceeds tumor uptake
